{
  "source": "patent US20240108632A1",
  "about": "“PHARMACEUTICAL COMPOSITION FOR ADMINISTRATION AS OPHTHALMIC DROP TO PATIENT REQUIRING OPTIC NERVE PROTECTION” (PINOTBIO, INC., priority 2020, published 2024)",
  "key": {"[1]": {"experiment": "Solubility as a function of HP-β-CD concentration, without pH adjustment (purified water)", "format": "physicochemical", "conditions": "no pH adjustment", "experimental": "Various concentrations of HP-β-CD aqueous solutions were prepared by adding appropriate amounts of HP-β-CD at 0.5%, 1%, 2%, 3%, 4%, and 5% (w/v) in tertiary purified water. An excess of KR-67607 was added to the above HP-β-CD solution and stirred for 24 hours, then the supernatant was collected, filtered through a 0.2 μm PVDF filter, and 1 mL was added to a 10 mL volumetric flask and labeled with methanol.\nThe standard was 50 mg of KR-67607 accurately weighed and placed in a 50 mL volumetric flask and completely dissolved/stained with methanol. 1, 2, 4, 6, 8, 10 mL of the standard was accurately taken and placed in a 20 mL volumetric flask, and the one labeled with methanol was used as the standard.\nThe UV analysis conditions are as follows • Wavelength: 255 nm • Cell: 10 mm Quartz cell\nKR-67607 concentration (μg/mL)=(UV absorbance of the sample−y-intercept of the standard curve)/(slope of the standard curve)×dilution factor of the sample. [Formula]"}, "[2]": {"experiment": "Solubility by HP-β-CD concentration at pH adjustment", "format": "physicochemical", "experimental": "Various concentrations of HP-β-CD aqueous solutions were prepared by adding 1%, 2%, 3%, and 4% (w/v) of HP-β-CD to tertiary purified water (pH 5.5), pH 7.4 phosphate buffer, and 0.04 M NaOH aqueous solution (pH 12.5). An excess of KR-67607 was added to the above HP-β-CD solution and stirred for 24 hours, then the supernatant was collected and filtered through a 0.2 μm PVDF filter, and 1 mL was added to a 10 mL volumetric flask and labeled with methanol.\nFor the standard solution, 50 mg of KR-67607 was accurately weighed and placed in a 50 mL volumetric flask and completely dissolved/stained with methanol. 1, 2, 4, 6, 8, 10 mL of the standard solution was accurately taken and placed in a 20 mL volumetric flask, and the one labeled with methanol was used as the standard."}, "DBA/2 mice [3]": {"tested_on": "DBA/2 mice", "experiment": "Retinal electroretinogram in glaucoma mouse model", "format": "in vivo", "conditions": "after 8 weeks; right eye only; 0.3 log cd×s/m^2 stimulation; high-dose; transient", "experimental": "[…] was performed according to the manufacturer's instructions after mice were anesthetized by instilling 20 μl of paracaine eye drops 0.5% in both eyes. The electrodes were placed on the scalp, tail, and cornea, respectively, and a certain amount of monochromatic white light stimulation was applied to perform retinal electroretinography. The response value of the stimulated retina and the amplitude from the crest of the a-wave to the peak of the b-wave were measured and evaluated as an indicator of retinal function.\nTo determine the effect of KR-67607 on retinal dysfunction and optic nerve damage, the electroretinograms of mice in the study were measured at 4-week intervals for 16 weeks. The electroretinograms were quantified by analyzing responses obtained by exposing the left and right eyes of the mice to −0.9, 0.3, and 1.2 log cd×s/m^2 of light, respectively. […] Before drug administration, there was no significant difference in retinal electroretinograms between the control, drug, and positive control groups. […] This effect was only transient at week 8, and no significant difference was seen from week 12."}, "Solubility by pH": {"experiment": "Solubility by pH", "format": "physicochemical", "conditions": "stirred 12 hours", "experimental": "50 mL of pH 1 to 12 solution and tertiary purified water were taken precisely and placed in a 50 mL clear glass vial, and an excess amount (50 mg) of KR-67607 was weighed and added and stirred for 12 hours. Then, it was allowed to stand for 20 minutes to settle the undissolved excess of KR-67607, and the supernatant was taken and filtered through a 0.2 μm PVDF filter as a stock solution.\nThe standard was prepared by accurately weighing 15 mg of KR-67607, placing it in a 50 mL volumetric flask, using diluent (0.02 M potassium dihydrogen phosphate aqueous solution:acetonitrile=50:50 (v/v)) to completely dissolve/mark KR-67607, and filtering the liquid through a 0.45 μm PVDF filter as the standard.\nThe HPLC analysis conditions were as follows • Detector: ultraviolet-visible absorption spectrophotometer (measuring wavelength: 254 nm) • Column: 250×4.6 mm, 5μm, C18 packing column • Column temperature: 25±3° C. • Injection volume: 25 μL • Flow rate: 1 mL/min • Mobile Phase: Gradient"}, "11β-HSD1": {"biological_target": "11β-HSD1 (Homo sapiens, UniProt P28845)", "sequence (P28845 whole entry, species assumed)": "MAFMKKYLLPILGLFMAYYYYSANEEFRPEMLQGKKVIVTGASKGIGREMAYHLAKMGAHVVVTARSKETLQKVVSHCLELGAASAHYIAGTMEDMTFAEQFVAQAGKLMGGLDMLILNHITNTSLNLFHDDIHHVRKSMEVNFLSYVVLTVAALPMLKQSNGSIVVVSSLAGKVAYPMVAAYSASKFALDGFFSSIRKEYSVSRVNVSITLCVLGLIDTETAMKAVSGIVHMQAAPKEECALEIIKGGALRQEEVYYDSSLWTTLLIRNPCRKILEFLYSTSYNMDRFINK", "conditions": "known; cited from earlier work"}, "[4]": {"tested_on": "New Zealand White rabbit ocular hypertension model animals", "experiment": "IOP-lowering efficacy in rabbit ocular hypertension model (scleral vein ligation)", "format": "in vivo", "experimental": "This study was conducted in male New Zealand White rabbit ocular hypertension model animals (intraocular pressure ≥17 mmHg) induced by scleral vein ligation to determine the effectiveness of KR-67607 eye drops in reducing ocular hypertension after repeated twice daily ophthalmic administration for 11 days.\nSterile physiological saline (negative control), Xalatan, Timoptic, Trusopt, Xalacom, and KR-67607 eye drops were administered twice daily for 11 days, and mortality and general symptoms were monitored, body weight was measured, feed intake was measured, and intraocular pressure was measured."}, "DBA/2 mice [5]": {"tested_on": "DBA/2 mice", "experiment": "Histology and immunostaining of retina and optic nerve head in glaucoma mouse model", "conditions": "after 16 weeks of drug treatment", "protocol": "After drug administration was terminated, the mice's eyes were enucleated and tissues were analyzed (FIGS. 14 to 26).\nThe optic nerve papilla area was analyzed by H&E staining, Caspase-3, 9, and TUNEL staining in retinal tissue removed and fixed from eyes of mice after 16 weeks of drug treatment. […] To determine the degree of cell death in the damaged optic nerve papilla tissue, Caspase-3, 9 staining (FIGS. 15 and 16), an indicator of early apoptosis, and TUNEL staining (FIG. 17), an indicator of late apoptosis, were performed."}},
  "note": "Values joined by “and” are separate entries in the source; they are usually repeats but may differ in a detail not shown here. Equal entries are not always repeated.",
  "data": [
    {"smiles": "CC1CN(CC(=O)NC2C3CC4CC2CC(C(N)=O)(C4)C3)S(=O)(=O)N(c2c(Cl)cc(C(F)(F)F)cc2Cl)C1", "note": "[KR-67607, (1s, 3R,4s,5S,7s)-4-(2-(6-(2,6-dichloro-4-(trifluoromethyl)phenyl)-4-methyl-1,1-dioxido-1,2,6-thiadiazinan-2-yl)acetamido)adamantane-1-carboxamide]", "values": [
      {"measurement": "the solubility of KR-67607", "setting": "[1]; HP-β-CD 0.5 % w/v in purified water", "value": 1200, "unit": "µg/mL"},
      {"measurement": "the solubility of KR-67607", "setting": "[1]; HP-β-CD 1.0 % w/v in purified water", "value": 2550, "unit": "µg/mL"},
      {"measurement": "the solubility of KR-67607", "setting": "[1]; HP-β-CD 2.0 % w/v in purified water", "value": 4230, "unit": "µg/mL"},
      {"measurement": "the solubility of KR-67607", "setting": "[1]; HP-β-CD 3.0 % w/v in purified water", "value": 6000, "unit": "µg/mL"},
      {"measurement": "the solubility of KR-67607", "setting": "[1]; HP-β-CD 4.0 % w/v in purified water", "value": 6910, "unit": "µg/mL"},
      {"measurement": "the solubility of KR-67607", "setting": "[1]; HP-β-CD 5.0 % w/v in purified water", "value": 7250, "unit": "µg/mL"},
      {"measurement": "Solubility by HP-β-CD concentration", "setting": "[2]; HP-β-CD 1.0 % w/v, 0.04M NaOH aqueous solution (pH 12.5)", "value": 3160, "unit": "µg/mL"},
      {"measurement": "Solubility by HP-β-CD concentration", "setting": "[2]; HP-β-CD 1.0 % w/v, phosphate buffer (pH 7.4)", "value": 2590, "unit": "µg/mL"},
      {"measurement": "Solubility by HP-β-CD concentration", "setting": "[2]; HP-β-CD 1.0 % w/v, purified water (pH 5.5)", "value": 2550, "unit": "µg/mL"},
      {"measurement": "Solubility by HP-β-CD concentration", "setting": "[2]; HP-β-CD 2.0 % w/v, 0.04M NaOH aqueous solution (pH 12.5)", "value": 5720, "unit": "µg/mL"},
      {"measurement": "Solubility by HP-β-CD concentration", "setting": "[2]; HP-β-CD 2.0 % w/v, phosphate buffer (pH 7.4)", "value": 4290, "unit": "µg/mL"},
      {"measurement": "Solubility by HP-β-CD concentration", "setting": "[2]; HP-β-CD 2.0 % w/v, purified water (pH 5.5)", "value": 4230, "unit": "µg/mL"},
      {"measurement": "Solubility by HP-β-CD concentration", "setting": "[2]; HP-β-CD 3.0 % w/v, 0.04M NaOH aqueous solution (pH 12.5)", "value": 7900, "unit": "µg/mL"},
      {"measurement": "Solubility by HP-β-CD concentration", "setting": "[2]; HP-β-CD 3.0 % w/v, phosphate buffer (pH 7.4)", "value": 6000, "unit": "µg/mL"},
      {"measurement": "Solubility by HP-β-CD concentration", "setting": "[2]; HP-β-CD 3.0 % w/v, purified water (pH 5.5)", "value": 6000, "unit": "µg/mL"},
      {"measurement": "Solubility by HP-β-CD concentration", "setting": "[2]; HP-β-CD 4.0 % w/v, 0.04M NaOH aqueous solution (pH 12.5)", "value": 9610, "unit": "µg/mL"},
      {"measurement": "Solubility by HP-β-CD concentration", "setting": "[2]; HP-β-CD 4.0 % w/v, phosphate buffer (pH 7.4)", "value": 6790, "unit": "µg/mL"},
      {"measurement": "Solubility by HP-β-CD concentration", "setting": "[2]; HP-β-CD 4.0 % w/v, purified water (pH 5.5)", "value": 6910, "unit": "µg/mL"},
      {"measurement": "retinal electroretinograms compared to control group", "setting": "DBA/2 mice [3]", "value": "significant increase"},
      {"measurement": "Solubility", "setting": "Solubility by pH; Purified water", "value": 18.83, "unit": "µg/mL"},
      {"measurement": "Solubility", "setting": "Solubility by pH; pH 1 solution", "value": 47.83, "unit": "µg/mL"},
      {"measurement": "Solubility", "setting": "Solubility by pH; pH 3 solution", "value": 46.08, "unit": "µg/mL"},
      {"measurement": "Solubility", "setting": "Solubility by pH; pH 5 solution", "value": 42.52, "unit": "µg/mL"},
      {"measurement": "Solubility", "setting": "Solubility by pH; pH 6 solution", "value": 43.61, "unit": "µg/mL"},
      {"measurement": "Solubility", "setting": "Solubility by pH; pH 7 solution", "value": 43.77, "unit": "µg/mL"},
      {"measurement": "Solubility", "setting": "Solubility by pH; pH 8 solution", "value": 41.95, "unit": "µg/mL"},
      {"measurement": "Solubility", "setting": "Solubility by pH; pH 9 solution", "value": 45.97, "unit": "µg/mL"},
      {"measurement": "Solubility", "setting": "Solubility by pH; pH 10 solution", "value": 44.53, "unit": "µg/mL"},
      {"measurement": "Solubility", "setting": "Solubility by pH; pH 12 solution", "value": 55.32, "unit": "µg/mL"},
      {"measurement": "inhibitory activity against 11β-HSD1", "setting": "11β-HSD1", "value": "good inhibitory activity"},
      {"measurement": "IOP reduction greater than in the negative control group", "setting": "[4]; Day 5", "value": 34.4, "unit": "%"},
      {"measurement": "IOP reduction greater than in the negative control group", "setting": "[4]; Day 8", "value": 45.5, "unit": "%"},
      {"measurement": "IOP compared to 100% of pre-dose IOP", "setting": "[4]; day 5, twice daily ophthalmic administration", "value": "49.0% and 60.1%"},
      {"measurement": "greater IOP reduction than the Xalacom treatment group", "setting": "[4]; day 8", "value": 3.6, "unit": "%"},
      {"measurement": "Brn3a expression in flat-mounted retinal tissue", "setting": "DBA/2 mice [5]", "value": "relatively increased"},
      {"measurement": "GABAergic amacrine cells", "setting": "DBA/2 mice [5]", "value": "relatively increased"},
      {"measurement": "GFAP expression (activated astrocytes) in optic nerve", "setting": "DBA/2 mice [5]", "value": "less concentrated"},
      {"measurement": "GLT-1 expression in retina", "setting": "DBA/2 mice [5]", "value": "no quantitative or qualitative difference"},
      {"measurement": "degree of retinal ganglion cell death (caspase-3 and 9)", "setting": "DBA/2 mice [5]", "value": "relatively reduced"},
      {"measurement": "glaucomatous histologic features of optic nerve papilla (H&E: cupping, nerve fiber layer thinning)", "setting": "DBA/2 mice [5]", "value": "alleviated"},
      {"measurement": "loss of retinal ganglion cells (H&E)", "setting": "DBA/2 mice [5]", "value": "less loss"},
      {"measurement": "number of Iba-1 positive microglia", "setting": "DBA/2 mice [5]", "value": "decreased"},
      {"measurement": "number of caspase-3, 9 expressing and TUNEL-positive cells in optic nerve papillae", "setting": "DBA/2 mice [5]", "value": "significantly reduced"}
    ]}
  ]
}
